Residues, ends and D or L forms follow the SMILES beside them.
Key:
P. aeruginosa = test: ATP inhibition (BACTITER-GLO); type: cell-based; details: EC5 at lowest concentration of 3.125 μg/ml
Method: (§1) The effects of EC5 on ATP inhibition as a measure of metabolic activity of E. coli and P. aeruginosa cells was determined by using BACTITER-GLO™ assay kit (Promega) according to the manufacturer's protocol. The luminescent signal correlates with the number of viable microbial cells based on the amount of ATP present after the addition of different concentrations of the peptide. Polymyxin B was included as a positive control.
(§2) ATP inhibition as a measurement of microbial viability was measured using BacTiter-Glo kit ([…]). Intracellular ATP levels of E. coli and P. aeruginosa were examined after the addition of different concentrations of EC5 (FIG. 9D). ATP inhibition began 5 min after the addition of EC5 at lowest concentration of 3.125 μg/ml which was slightly lower than the MIC of 8 μg/ml for E. coli and P. aeruginosa.

E. coli = test: ATP inhibition (BACTITER-GLO); type: cell-based; details: EC5 at lowest concentration of 3.125 μg/ml
Method: as §1, §2

[1] = tested on: chicken red blood cells (ch-RBCs); type: cell-based
Method: The ability of EC5 to induce hemolysis of chicken red blood cells (ch-RBCs) was assessed as previously described (Pathak, S. and Chauhan, V. S. (2011) Antimicrob. Agents Chemother. 55, 2178-2188). Red blood cells were harvested and washed with phosphate-buffered saline (PBS). 1% (vol/vol) suspension was made with PBS. 100 μl and 50 μl of this RBC suspension were transferred to 96-well microtiter plates. Two-fold serial dilutions of the peptide samples were prepared and added to the RBCs. The reaction mixture was incubated at 37° C. for 24 h in microtiter plates. Results were visually determined.
The hemolytic activity of EC5 against chRBCs was determined as a measure of peptide toxicity toward higher eukaryotic cells (Yount, N. Y., et al., (2011) PLoS. One. 6, e26727; Tachi, T., et al., Biochemistry 41, 10723-10731). MHC is the maximal peptide concentration that produces no hemolysis after 24 h of incubation at 37° C.

S. aureus [2] = test: Cytoplasmic membrane depolarization assay (diSC3-5); type: cell-based; details: EC5 64 μg/ml; after 45 min
Method: Membrane depolarization activity (Δψ) of the peptide was determined with intact E. coli and P. aeruginosa cells and the membrane potential-sensitive fluorescent dye, 3,3′-dipropylthiadicarbocyanine Iodide (diSC (3)5) (Invitrogen, Oregon), according to described methods (Sims, P. J., et al (1974) Biochemistry 13, 3315-3330). Briefly, bacterial cells of mid-logarithmic phase were harvested by centrifugation and washed twice with HEPES buffer (5 mM HEPES, 5 mM glucose, pH 7.6). The cells were suspended in the same buffer to an OD of 0.05. The cell suspension was incubated with […] diSC (3)5 until maximal uptake of the dye. 100 mM KCl was added to equilibrate the cytoplasmic and external potassium ion concentration of peptide, and fluorescence was monitored at an excitation wavelength of 622 nm and an emission wavelength of 670 nm. […]
Cytoplasmic depolarization assay(Δψ) was performed using the membrane potential sensitive dye 3,3′-dipropylthiadicarbocyanine iodide (diSC3-5) (Zang, L. et al., (2001) J. Biol. Chem. 276, 35714-35722). This dye can cross the outer membrane of the bacterial cell and become concentrated in the cytoplasmic membrane and thereby it self-quenches its own fluorescence. Upon addition of a membrane-permeabilizing agent the dye is released with consequent increase in the fluorescence. […]

S. epidermidis = test: Whole-cell ELISA binding of biotinylated peptide; details: EC5 50 μg/ml
Method: (§3) ELISA. Log-phase cultures of bacteria were centrifuged at 3,000×g. The cell pellet was resuspended and 10-fold serial dilutions were made in 1×PBS. Bacterial cell suspension at a concentration of 10^3 CFU was coated to the wells of 96-well micro plate (Becton Dickinson, Bedford, Mass.) and incubated overnight at RT. Subsequently, cells were fixed in ethanol (Aldrich Chemical Company, Milwaukee, Wis.) for 10 minutes (min) and the plates were air-dried. Wells were blocked with 5% bovine serum albumin (BSA) (Sigma, St. Louis, Mo.) for 60 min at room temperature (RT), rinsed with PBS and then EC5 peptide suspended in phosphate buffered saline (PBS) at a final concentration of 50 μg/ml were added to all the wells and incubated for 15 min. Following incubation, wells were washed 3 times with PBST buffer (PBS pH 7.4, 0.01% Tween 20). The wells were further incubated with 1:10,000 dilution of streptavidin-HRP conjugate (Upstate, Temecula, Calif.) for 15 min and washed with PBST buffer. Tetramethylbenzidine (TMB) membrane peroxidase substrate (Zymed Laboratories, Carlsbad, Calif.) system was used to detect the enzyme label in accordance with the manufacturer's instructions. The color development in the 96-well plate was recorded by using SYNERGY 4™ BioTek micro plate reader (BioTek Instruments, Winooski, Vt.) at 490 nm wavelength.

S. aureus [3] = test: Whole-cell ELISA binding of biotinylated peptide; details: EC5 50 μg/ml
Method: as §3

B. cereus = test: Whole-cell ELISA binding of biotinylated peptide; details: EC5 50 μg/ml
Method: as §3

E. coli cells = test: Whole-cell ELISA binding of biotinylated peptide; details: EC5 50 μg/ml; p<0.001
Method: as §3

P. aeruginosa cells = test: Whole-cell ELISA binding of biotinylated peptide; details: EC5 50 μg/ml; p<0.05
Method: as §3

K pneumoniae = test: Whole-cell ELISA binding of biotinylated peptide; details: EC5 50 μg/ml
Method: as §3

## CC[C@H](C)[C@H](NC(=O)[C@H](CCCCN)NC(=O)[C@H](CCCNC(=N)N)NC(=O)[C@H](Cc1ccccc1)NC(=O)[C@H](CC(C)C)NC(=O)[C@H](CC(C)C)NC(=O)[C@@H](N)CCCNC(=N)N)C(=O)N[C@@H](CCCNC(=N)N)C(=O)N[C@@H](CCCNC(=N)N)C(=O)N[C@@H](CC(C)C)C(=O)N[C@@H](CCCCN)C(=O)N[C@@H](CCCNC(=N)N)C(=O)O [EC5, RLLFRKIRRLKR] (H-RLLFRKIRRLKR-OH; N-terminus and C-terminus assumed)
P. aeruginosa
  time at which ATP inhibition began: 5 min
E. coli
  time at which ATP inhibition began: 5 min
[1]
  therapeutic index (MIC versus concentrations inducing hemolysis): favorable
S. aureus [2]
  release of diSC3-5 from S. aureus: no trace of release
S. epidermidis
  binding to S. epidermidis: did not bind
S. aureus [3]
  binding to S. aureus: did not bind
B. cereus
  binding to B. cereus: did not bind
E. coli cells
  binding to E. coli cells: significant binding efficiency
P. aeruginosa cells
  binding to P. aeruginosa cells: showed binding
K pneumoniae
  binding to K pneumoniae: did not bind

Source: patent US9243036B2, “Anti-microbial activity of synthetic peptides” (THE UNITED STATES OF AMERICA, as represented by the …, priority 2012, dated 2016)
